From patent publication US10118930B2, “Piperidinylpyrazolopyrimidinones and their use” (BAYER PHARMA AKTIENGESELLSCHAFT, priority 2015, dated 2018) come the findings set out here.

Structures are written as SMILES. Counter-ions that a name gives are not always drawn.

Broadly, the IC50 is the point on the concentration scale where inhibition reaches its midpoint. The low end stands for greater potency, the high end for weaker potency.

This experiment has as its system clot lysis (fibrinolysis) in diluted human citrated plasma, tPA-induced. As to the kind of experiment: Plasma-based clot lysis assay (5%). Format: biochemical. As to conditions: human citrated platelet-poor plasma 5%, fibrinogen 3 μM, CaCl2 10 mM, tPA 0.2 nM, 37° C., OD at 405 nm. The gist of the method: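 Compounds added to 5% platelet-poor citrated human plasma with 3 μM fibrinogen in 20 mM HEPES, 150 mM NaCl, 0.01% Brij, pH 7. Clotting and lysis started with 10 mM CaCl2 and 0.2 nM tPA at 37° C. IC50 derived by comparing time courses with a blank control reaction.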
Consider `Cc1ccc(Cl)cc1-c1nc(-c2cnn3c(C4CCNCC4)cc(=O)[nH]c23)no1` [Example 230, 3-[5-(5-chloro-2-methylphenyl)-1,2,4-oxadiazol-3-yl]-7-(piperidin-4-yl)pyrazolo[1,5-a]pyrimidin-5(4H)-one hydrochloride], for which the IC50 is 36 nM.
Turning to `Cc1ccc(-c2noc(-c3cnn4c(C5CCNCC5)cc(=O)[nH]c34)n2)c(C(F)(F)F)c1` [Example 128, 3-{3-[4-Methyl-2-(trifluoromethyl)phenyl]-1,2,4-oxadiazol-5-yl}-7-(piperidin-4-yl)pyrazolo[1,5-a]pyrimidin-5(4H)-one hydrochloride], half-maximal inhibition (IC50) was put at 110 nM.
The figure for `COC(=O)c1cc2[nH]c(=O)cc(C3CCNCC3)n2n1` [Example 28, Methyl 5-oxo-7-(piperidin-4-yl)-4,5-dihydropyrazolo[1,5-a]pyrimidine-2-carboxylate] is 110 nM; for `Cc1nn2c(C3CCNCC3)cc(=O)[nH]c2c1C(=O)N1CCNC(=O)CC1` [Example 430, 2-methyl-3-[(5-oxo-1,4-diazepan-1-yl)carbonyl]-7-(piperidin-4-yl) pyrazolo[1,5-a] pyrimidin-5(4H)-one hydrochloride] it is 120 nM.
The figure for `NC(=O)c1c(-c2ccccc2)nn2c(C3CCNCC3)cc(=O)[nH]c12` [Example 41, 5-Oxo-2-phenyl-7-(piperidin-4-yl)-4,5-dihydropyrazolo[1,5-a]pyrimidine-3-carboxamide trifluoroacetate] is 19 nM.
On to `CC(C)(C)CNC(=O)c1cnn2c(C3CCNCC3)cc(=O)[nH]c12` [Example 93, N-(2,2-dimethylpropyl)-5-oxo-7-(piperidin-4-yl)-4,5-dihydropyrazolo[1,5-a]pyrimidine-3-carboxamide hydrochloride], for which half-maximal inhibition (IC50) required 22 nM.
Take `C[C@@H](c1ccccc1)N(C)C(=O)c1cnn2c(C3CCNCC3)cc(=O)[nH]c12` [Example 360, N-methyl-5-oxo-N-[(1S)-1-phenylethyl]-7-(piperidin-4-yl)-4,5-dihydropyrazolo[1,5-a]pyrimidine-3-carboxamide hydrochloride]: the IC50 is 52 nM.
In turn, `Cc1nn2c(C3CCNCC3)cc(=O)[nH]c2c1C(=O)N(C)Cc1ccccn1` [Example 428, N,2-dimethyl-5-oxo-7-(piperidin-4-yl)-N-(pyridin-2-ylmethyl)-4,5-dihydro-pyrazolo[1,5-a] pyrimidine-3-carboxamide hydrochloride] came in with an IC50 of 29 nM.
Turning to `CC(C)=Cc1nc(-c2cnn3c(C4CCNCC4)cc(=O)[nH]c23)no1` [Example 383, 3-[5-(2-Methylprop-1-en-1-yl)-1,2,4-oxadiazol-3-yl]-7-(piperidin-4-yl)pyrazolo[1,5-a]pyrimidin-5 (4H)-one hydrochloride], the IC50 turned out to be 15 nM.
The figure for `COCc1nn2c(C3CCNCC3)cc(=O)[nH]c2c1-c1ccc(OC)cc1` [Example 3, 2-(Methoxymethyl)-3-(4-methoxyphenyl)-7-(piperidin-4-yl)pyrazolo[1,5-a]pyrimidin-5 (4H)-one hydrochloride] is 33 nM.
The compound `COCc1nnc(-c2cnn3c(C4CCNCC4)cc(=O)[nH]c23)o1` [Example 173, 3-[5-(methoxymethyl)-1,3,4-oxadiazol-2-yl]-7-(piperidin-4-yl)pyrazolo[1,5-a]pyrimidin-5(4H)-one hydrochloride] gave a 50% inhibitory concentration (IC50) of 34 nM.
`CS(=O)(=O)c1ccc(-c2cnn3c(C4CCNCC4)cc(=O)[nH]c23)cc1` [Example 55, 3-[4-(Methylsulfonyl)phenyl]-7-(piperidin-4-yl)pyrazolo[1,5-a]pyrimidin-5(4H)-one hydrochloride] showed an IC50 of 19 nM.
In turn, `Cc1nn2c(C3CCNCC3)cc(=O)[nH]c2c1-c1nc(C(F)(F)F)no1` [Example 341, 2-methyl-7-(piperidin-4-yl)-3-[3-(trifluoromethyl)-1,2,4-oxadiazol-5-yl]pyrazolo[1,5-a]pyrimidin-5(4H)-one hydrochloride] gave an IC50 of 34 nM.
`CN1CCC(Cc2noc(-c3cnn4c(C5CCNCC5)cc(=O)[nH]c34)n2)CC1` [Example 203, 3-{3-[(1-methylpiperidin-4-yl)methyl]-1,2,4-oxadiazol-5-yl}-7-(piperidin-4-yl)pyrazolo[1,5-a]pyrimidin-5(4H)-one hydrochloride] registered an IC50 of 34 nM.
`CN(C)Cc1cnn2c(C3CCNCC3)cc(=O)[nH]c12` [Example 342, 3-[(dimethylamino)methyl]-7-(piperidin-4-yl)pyrazolo[1,5-a]pyrimidin-5(4H)-one hydrochloride] yielded an IC50 of 170 nM.
In turn, `Cn1nccc1-c1cnn2c(C3CCNCC3)cc(=O)[nH]c12` [Example 375, 3-(1-methyl-1H-pyrazol-5-yl)-7-(piperidin-4-yl)pyrazolo[1,5-a]pyrimidin-5(4H)-one hydrochloride] registered an IC50 of 30 nM.
`O=c1cc(C2CCNCC2)n2ncc(-c3nc(C4CC4)cs3)c2[nH]1` [Example 311, 3-(4-cyclopropyl-1,3-thiazol-2-yl)-7-(piperidin-4-yl)pyrazolo[1,5-a]pyrimidin-5(4H)-one hydrochloride] came in with an IC50 of 18 nM.
The figure for `Cc1nn2c(C3CCNCC3)cc(=O)[nH]c2c1C(=O)N1CCOC(C)(C)C1` [Example 426, 3-[(2,2-dimethyl-morpholin-4-yl)carbonyl]-2-methyl-7-(piperidin-4-yl) pyrazolo[1,5-a] pyrimidin-5(4H)-one hydrochloride] is 56 nM; for `O=c1cc(C2CCNCC2)n2ncc(-c3noc(CC(F)(F)F)n3)c2[nH]1` [Example 388, 7-(Piperidin-4-yl)-3-[5-(2,2,2-trifluoroethyl)-1,2,4-oxadiazol-3-yl]pyrazolo[1,5-a]pyrimidin-5(4H)-one hydrochloride] it is 30 nM.
On to `NC(=O)c1noc(-c2cnn3c(C4CCNCC4)cc(=O)[nH]c23)n1` [Example 200, 5-[5-oxo-7-(piperidin-4-yl)-4,5-dihydropyrazolo[1,5-a]pyrimidin-3-yl]-1,2,4-oxadiazole-3-carboxamide hydrochloride], for which it took 34 nM to reach half-maximal inhibition (IC50).
Compound `C[C@H]1C[C@H](c2cc(=O)[nH]c3c(C(N)=O)cnn23)CCN1` [Example 51, (−)-trans-7-(2-Methylpiperidin-4-yl)-5-oxo-4,5-dihydropyrazolo[1,5-a]pyrimidine-3-carboxamide trifluoroacetate] had a half-inhibitory concentration (IC50) of 16 nM.
For the compound `CCCCCCc1nc(-c2cnn3c(C4CCNCC4)cc(=O)[nH]c23)no1` [Example 379, 3-(5-Hexyl-1,2,4-oxadiazol-3-yl)-7-(piperidin-4-yl)pyrazolo[1,5-a]pyrimidin-5(4H)-one hydrochloride], the concentration for half-maximal inhibition (IC50) was 22 nM.
For the compound `Cc1ccc(-c2noc(-c3cnn4c(C5CCNCC5)cc(=O)[nH]c34)n2)cc1` [Example 39, 3-[3-(4-Methylphenyl)-1,2,4-oxadiazol-5-yl]-7-(piperidin-4-yl)pyrazolo[1,5-a]pyrimidin-5 (4H)-hydrochloride], the IC50 amounted to 27 nM.
Regarding `O=C(Nc1cccc(Cl)c1F)c1cnn2c(C3CCNCC3)cc(=O)[nH]c12` [Example 87, N-(3-chloro-2-fluorophenyl)-5-oxo-7-(piperidin-4-yl)-4,5-dihydropyrazolo[1,5-a]pyrimidine-3-carboxamide hydrochloride], the IC50 amounted to 30 nM.
Turning to `CCOC(=O)c1c(-c2ccccc2)nn2c(C3CCNCC3)cc(=O)[nH]c12` [Example 38, Ethyl 5-oxo-2-phenyl-7-(piperidin-4-yl)-4,5-dihydropyrazolo[1,5-a]pyrimidine-3-carboxylate trifluoroacetate], half-maximal inhibition (IC50) was put at 18 nM.
Regarding `Cc1ccc(-c2noc(-c3cnn4c(C5CCNCC5)cc(=O)[nH]c34)n2)c(Cl)c1` [Example 130, 3-[3-(2-Chloro-4-methylphenyl)-1,2,4-oxadiazol-5-yl]-7-(piperidin-4-yl)pyrazolo[1,5-a]pyrimidin-5(4H)-one hydrochloride], inhibition was half-maximal at 41 nM (IC50).
Consider `CCc1cnn2c(C3CCNCC3)cc(=O)[nH]c12` [Example 265, 3-ethyl-7-(piperidin-4-yl)pyrazolo[1,5-a]pyrimidin-5(4H)-one hydrochloride], for which the IC50 was 340 nM.
`Cc1nn2c(C3CCNCC3)cc(=O)[nH]c2c1-c1nc(-c2ccc(C(F)(F)F)cc2)no1` [Example 442, 2-methyl-7-(piperidin-4-yl)-3-{3-[4-(trifluoromethyl)phenyl]-1,2,4-oxadiazol-5-yl}pyrazolo[1,5-a]pyrimidin-5(4H)-one hydrochloride] had an IC50 of 27 nM.
Compound `CCNC(=O)c1c(C)nn2c(C3CCNCC3)cc(=O)[nH]c12` [Example 317, N-ethyl-2-methyl-5-oxo-7-(piperidin-4-yl)-4,5-dihydropyrazolo[1,5-a]pyrimidine-3-carboxamide hydrochloride] gave an IC50 of 29 nM.
The result for `O=c1cc(C2CCNCC2)n2ncc(-c3nc(-c4cc(F)c(F)cc4F)no3)c2[nH]1` [Example 190, 7-(piperidin-4-yl)-3-[3-(2,4,5-trifluorophenyl)-1,2,4-oxadiazol-5-yl]pyrazolo[1,5-a]pyrimidin-5 (4H)-one hydrochloride] reads 34 nM; that for `COc1cc(-c2noc(-c3cnn4c(C5CCNCC5)cc(=O)[nH]c34)n2)ccc1C` [Example 116, 3-[3-(3-Methoxy-4-methylphenyl)-1,2,4-oxadiazol-5-yl]-7-(piperidin-4-yl)pyrazolo[1,5-a]pyrimidin-5(4H)-one hydrochloride], 39 nM; that for `N#Cc1ccc(-c2nnc(-c3cnn4c(C5CCNCC5)cc(=O)[nH]c34)o2)cc1` [Example 167, 4-{5-[5-oxo-7-(piperidin-4-yl)-4,5-dihydropyrazolo[1,5-a]pyrimidin-3-yl]-1,3,4-oxadiazol-2-yl}benzonitrile hydrochloride], 34 nM.
The compound `Cc1nc(-c2ccc(C(F)(F)F)cc2)sc1-c1cnn2c(C3CCNCC3)cc(=O)[nH]c12` [Example 369, 3-{4-methyl-2-[4-(trifluoromethyl)phenyl]-1,3-thiazol-5-yl}-7-(piperidin-4-yl)pyrazolo[1,5-a]pyrimidin-5(4H)-one hydrochloride] returned an IC50 of 39 nM.
